Source: patent publication US20260207718A1, “METHODS FOR TREATING LATE ONSET POMPE DISEASE IN PEDIATRIC PATIENTS” (Amicus Therapeutics, Inc., priority 2022, published 2026)
Read-outs that look alike come from different tables or passages of the source.

Tests used:
[1] = test system: pediatric subjects with late-onset Pompe disease; assay: ATB200-04 trial: safety in pediatric subjects with LOPD; assay type: in vivo, human; settings: ERT-experienced subject, Cohort 2
Source text: This study includes subjects with Pompe disease except classic IOPD.
Safety assessments include monitoring of adverse events (AEs), clinical laboratory tests (chemistry, hematology, and urinalysis), physical examinations, vital signs, 12-lead electrocardiogram (ECGs), and detection of cipaglucosidase alfa antibodies.

[2] = ATB200-04 trial: population PK exposure matching of adolescents to adults; assay type: in vivo, human; settings: for AUC(0-t) / Cmax: human, plasma
Source text: The ATB200-04 trial seeks to evaluate the safety and tolerability of cipaglucosidase alfa/miglustat co-administration.
Subjects have scheduled PK assessments at Day 1, Week 26, and Week 52 for plasma total GAA protein and miglustat.
Population PK parameters include clearance (CL) and volume of distribution (V), estimated from total GAA protein concentrations and miglustat concentrations in plasma.
Methods for Exposure Matching. Pediatric PK data from both clinical trials and expanded access programs were used for exposure matching to adult PK data. […] The previous base population PK models from cipaglucosidase alfa-atga and miglustat were rerun with the updated dataset. To account for longitudinal changes in body size for pediatric patients, the time-varying body weight was used to estimate the effects of body size on PK parameters in the population PK models. The effect of age at baseline on clearance was also evaluated in the PK models. Individual AUC0-24 and Cmax of cipaglucosidase alfa and miglustat were predicted from the PK empirical Bayes estimates (EBEs). The time-varying body weight and baseline age in pediatrics were used in the exposure prediction. PK exposures (AUC0-24 and Cmax) were predicted for each PK visit during the study; Day 1-baseline, Week 26, and Week 52. Additionally, there were unscheduled PK visits for some subjects.
Results for Adolescent Subjects. […] The dose may have been adjusted at a later visit for exposure matching. It should be noted however, that in the early stage of the study, all subjects were started at 20 mg/kg to evaluate safety.

**Q.** Which results are given for CCCCN1C[C@H](O)[C@@H](O)[C@H](O)[C@H]1CO [miglustat, (2R,3R,4R,5S)-1-butyl-2-(hydroxymethyl) piperidine-3,4,5-triol]?
**A.** investigator-assessed relatedness of anaphylaxis event (both episodes) [1]: unrelated; predicted AUC0-24 and Cmax for adolescents relative to adult 5th and 95th percentile range ([2]; adults N=100, adolescents N=8): for most adolescents are within the adult 5th and 95th percentile range; AUC(0-t) ([2]; oral, miglustat, predicted, Adults N=100, read-out: AUC0-24, Geo Mean): 20400 ng·h/mL; AUC(0-t) ([2]; oral, miglustat, predicted, Adults N=100, read-out: AUC0-24, Mean): 20700 ng·h/mL; AUC(0-t) ([2]; oral, miglustat, predicted, Adults N=100, read-out: AUC0-24, Median): 20700 ng·h/mL; AUC(0-t) ([2]; oral, miglustat, predicted, Adults N=100, read-out: AUC0-24, P5): 15200 ng·h/mL; AUC(0-t) ([2]; oral, miglustat, predicted, Adults N=100, read-out: AUC0-24, P95): 28300 ng·h/mL; Cmax ([2]; oral, miglustat, predicted, Adults N=100, read-out: Cmax, Geo Mean): 2370 ng/mL; Cmax ([2]; oral, miglustat, predicted, Adults N=100, read-out: Cmax, Mean): 2420 ng/mL; Cmax ([2]; oral, miglustat, predicted, Adults N=100, read-out: Cmax, Median): 2370 ng/mL; Cmax ([2]; oral, miglustat, predicted, Adults N=100, read-out: Cmax, P5): 1720 ng/mL; Cmax ([2]; oral, miglustat, predicted, Adults N=100, read-out: Cmax, P95): 3280 ng/mL; AUC(0-t) ([2]; po, 195 mg, adolescent Subject 5, 195 mg, Week 52, 43.7 kg, read-out: individual predicted AUC0-24): 21000 ng·h/mL; Cmax ([2]; po, 195 mg, adolescent Subject 5, 195 mg, Week 52, 43.7 kg, read-out: individual predicted Cmax): 2330 ng/mL; AUC(0-t) ([2]; po, 195 mg, adolescent Subject 6, 195 mg, Week 52, 36.5 kg, read-out: individual predicted AUC0-24): 13500 ng·h/mL; Cmax ([2]; po, 195 mg, adolescent Subject 6, 195 mg, Week 52, 36.5 kg, read-out: individual predicted Cmax): 1700 ng/mL; AUC(0-t) ([2]; po, 260 mg, adolescent Subject 1, 260 mg, Week 52, 77.9 kg, read-out: individual predicted AUC0-24): 20400 ng·h/mL; Cmax ([2]; po, 260 mg, adolescent Subject 1, 260 mg, Week 52, 77.9 kg, read-out: individual predicted Cmax): 2960 ng/mL; AUC(0-t) ([2]; po, 260 mg, adolescent Subject 2, 260 mg, Week 52, 83.8 kg, read-out: individual predicted AUC0-24): 17100 ng·h/mL; Cmax ([2]; po, 260 mg, adolescent Subject 2, 260 mg, Week 52, 83.8 kg, read-out: individual predicted Cmax): 1910 ng/mL; AUC(0-t) ([2]; po, 260 mg, adolescent Subject 3, 260 mg, Week 52, 64.6 kg, read-out: individual predicted AUC0-24): 20300 ng·h/mL; Cmax ([2]; po, 260 mg, adolescent Subject 3, 260 mg, Week 52, 64.6 kg, read-out: individual predicted Cmax): 2170 ng/mL; AUC(0-t) ([2]; po, 260 mg, adolescent Subject 4, 260 mg, Week 64, 53.3 kg, read-out: individual predicted AUC0-24): 22300 ng·h/mL; Cmax ([2]; po, 260 mg, adolescent Subject 4, 260 mg, Week 64, 53.3 kg, read-out: individual predicted Cmax): 2590 ng/mL; AUC(0-t) ([2]; po, 260 mg, adolescent Subject 7, 260 mg, Week 52, 60.3 kg, read-out: individual predicted AUC0-24): 15000 ng·h/mL; Cmax ([2]; po, 260 mg, adolescent Subject 7, 260 mg, Week 52, 60.3 kg, read-out: individual predicted Cmax): 1850 ng/mL; AUC(0-t) ([2]; po, 260 mg, adolescent Subject 8, 260 mg, Week 72, 38.5 kg, read-out: individual predicted AUC0-24): 19600 ng·h/mL; Cmax ([2]; po, 260 mg, adolescent Subject 8, 260 mg, Week 72, 38.5 kg, read-out: individual predicted Cmax): 1800 ng/mL; AUC(0-t) ([2]; po, miglustat, predicted, Adolescents N=8, read-out: AUC0-24, Geo Mean): 18400 ng·h/mL; AUC(0-t) ([2]; po, miglustat, predicted, Adolescents N=8, read-out: AUC0-24, Mean): 18700 ng·h/mL; AUC(0-t) ([2]; po, miglustat, predicted, Adolescents N=8, read-out: AUC0-24, Median): 20000 ng·h/mL; AUC(0-t) ([2]; po, miglustat, predicted, Adolescents N=8, read-out: AUC0-24, P5): 14100 ng·h/mL; AUC(0-t) ([2]; po, miglustat, predicted, Adolescents N=8, read-out: AUC0-24, P95): 21800 ng·h/mL; Cmax ([2]; po, miglustat, predicted, Adolescents N=8, read-out: Cmax, Geo Mean): 2130 ng/mL; Cmax ([2]; po, miglustat, predicted, Adolescents N=8, read-out: Cmax, Mean): 2160 ng/mL; Cmax ([2]; po, miglustat, predicted, Adolescents N=8, read-out: Cmax, Median): 2040 ng/mL; Cmax ([2]; po, miglustat, predicted, Adolescents N=8, read-out: Cmax, P5): 1740 ng/mL; Cmax ([2]; po, miglustat, predicted, Adolescents N=8, read-out: Cmax, P95): 2830 ng/mL; Cmax, geometric LSM Ratio adolescents to adults ([2]; miglustat, 90% CI (79.51, 101.54)): 89.85; AUC0-24, geometric LSM Ratio adolescents to adults ([2]; miglustat, 90% CI (80.58, 101.21)): 90.31
